pEC50: −log10 of the molar value.
Molecular target: RIPK1 (Homo sapiens (Human), UniProt Q13546)
Experiment: RIPK1-ADP-Glo Enzymatic Assay
Type: biochemical
Conditions: recombinant GST-RIPK1 kinase domain (residues 1-327), 25 nM, ten-point titration, 30 minutes pre-incubation
Procedure: The enzymatic activity of RIPK1 was measured using an assay derived from ADP-Glo kit (™Promega), which provides a luminescent-based ADP detection system. Specifically, the ADP generated by RIPK1 kinase was proportionally detected as luminescent signals in a homogenous fashion. In this context, the assessment of the inhibitory effect of small molecules (EC50) was measured by the effectiveness of the compounds to inhibit the ATP to ADP conversion by RIPK1.
In this assay, the potency (EC50) of each compound was determined from a ten-point (1:3 serial dilution: top compound concentration of 100000 nM) titration curve using the following outlined procedure. To each well of a white ProxiPlus 384 well-plate, 30 nL of compound (1% DMSO in final assay volume of 3 μL) was dispensed, followed by the addition of 2 μL of 1x assay buffer (25 mM Hepes 7.3, 20 mM MgCl2, 50 mM NaCl, 1 mM DTT, 0.005% Tween20, and 0.02% BSA) containing 37.5 nM of GST-RIPK1 (recombinant GST-RIPK1 kinase domain (residues 1-327) enzyme produced from baculovirus-transfected Sf21 cells: MW=62 kDa). Plates were placed in an ambient temperature humidified chamber for a 30 minutes pre-incubation with compound. Subsequently, each reaction was initiated by the addition of 1 μL 1× assay buffer containing […] dephosphorylated-MBP substrate. The final reaction in each well of 3 μL consists of 25 nM of GST-RIPK1, 300 µM ATP, and 3 μM dephosphorylated-MBP. Kinase reactions were allowed to proceed for 150 minutes prior to adding ADP-Glo reagents per Promega's outlined kit protocol. Dose-response curves were generated by plotting percent effect (% product conversion: Y-axis) vs. Logio compound concentrations (X-axis). EC50 values were calculated using a non-linear regression, four-parameters sigmoidal dose-response model and are provided for example compounds of the invention (labeled “RIPK1 EC50 (nM)” throughout the above examples).

Sequence of RIPK1 (Q13546 1-327): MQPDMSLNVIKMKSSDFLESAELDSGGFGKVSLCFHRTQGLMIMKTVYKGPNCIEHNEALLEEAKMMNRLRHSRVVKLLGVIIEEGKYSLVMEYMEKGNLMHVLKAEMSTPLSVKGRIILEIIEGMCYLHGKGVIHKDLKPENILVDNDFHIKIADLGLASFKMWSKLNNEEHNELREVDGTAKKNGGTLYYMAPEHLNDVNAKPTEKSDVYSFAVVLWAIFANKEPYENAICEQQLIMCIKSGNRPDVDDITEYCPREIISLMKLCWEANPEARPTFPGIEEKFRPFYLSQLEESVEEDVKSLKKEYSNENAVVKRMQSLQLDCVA

| pEC50 | SMILES |
| --- | --- |
| 6.82 | O=C1N2[C@H](c3cc(F)cc(F)c3)CCN2CC12CCN(c1cc(O)ncn1)CC2 [Example 1.2, (7′S)-7′-(3,5-difluorophenyl)-1-(6-hydroxypyrimidin-4-yl)dihydro-1′H,3′H,5′H-spiro[piperidine-4,2′-pyrazolo[1,2-a]pyrazol]-1′-one] |
| 7.72 | O=C1N2[C@H](c3cc(F)cc(F)c3)CCN2CC12CCN(c1cc(F)ccn1)CC2 [Example 1.3, (7′S)-7′-(3,5-difluorophenyl)-1-(4-fluoropyridin-2-yl)dihydro-1′H,3′H,5′H-spiro[piperidine-4,2′-pyrazolo[1,2-a]pyrazol]-1′-one] |
| 6.20 | O=C1N2[C@H](c3cc(F)cc(F)c3)CCN2CC12CCN(c1cccc(CO)n1)CC2 [Example 1.4, (7′S)-7′-(3,5-difluorophenyl)-1-[6-(hydroxymethyl)pyridin-2-yl]dihydro-1′H,3′H,5′H-spiro [piperidine-4,2′-pyrazolo[1,2-a]pyrazol]-1′-one] |
| 7.62 | O=C1N2[C@H](c3cc(F)cc(F)c3)CCN2CC12CCN(c1cccc(Cl)n1)CC2 [Example 1.5, (7′S)-1-(6-chloropyridin-2-yl)-7′-(3,5-difluorophenyl)dihydro-1′H,3′H,5′H-spiro[piperidine-4,2′-pyrazolo[1,2-a]pyrazol]-1′-one] |
| 6.41 | Cc1cnc(N2CCC3(CC2)CN2CC[C@@H](c4cc(F)cc(F)c4)N2C3=O)nc1 [Example 1.6, (7′S)-7′-(3,5-difluorophenyl)-1-(5-methylpyrimidin-2-yl)dihydro-1′H,3′H,5′H-spiro[piperidine-4,2′-pyrazolo[1,2-a]pyrazol]-1′-one] |
| 7.41 | O=C1N2[C@H](c3cc(F)cc(F)c3)CCN2CC12CCN(c1cc(C(F)F)ncn1)CC2 [Example 1.7, (7′S)-1-[6-(difluoromethyl)pyrimidin-4-yl]-7′-(3,5-difluorophenyl)dihydro-1′H,3′H,5′H-spiro [piperidine-4,2′-pyrazolo[1,2-a]pyrazol]-1′-one] |
| 7.80 | O=C1N2[C@H](c3cc(F)cc(F)c3)CCN2CC12CCN(c1ccnc(C(F)F)n1)CC2 [Example 1.8, (7′S)-1-[2-(difluoromethyl)pyrimidin-4-yl]-7′-(3,5-difluorophenyl)dihydro-1′H,3′H,5′H-spiro[piperidine-4,2′-pyrazolo[1,2-a]pyrazol]-1′-one] |
| 7.43 | O=C1N2[C@H](c3cc(F)cc(F)c3)CCN2CC12CCN(c1cc(F)ncc1F)CC2 [Example 1.9, (7′S)-7′-(3,5-difluorophenyl)-1-(2,5-difluoropyridin-4-yl)dihydro-1′H,3′H,5′H-spiro[piperidine-4,2′-pyrazolo[1,2-a]pyrazol]-1′-one] |
| 7.55 | O=C1N2[C@H](c3cc(F)cc(F)c3)CCN2CC12CCN(c1cc(Cl)ccn1)CC2 [Example 1.11, (7′S)-1-(4-chloropyridin-2-yl)-7′-(3,5-difluorophenyl)dihydro-1′H,3′H,5′H-spiro[piperidine-4,2′-pyrazolo[1,2-a]pyrazol]-1′-one] |
| 7.54 | O=C1N2[C@H](c3cc(F)cc(F)c3)CCN2CC12CCN(c1cccc(F)n1)CC2 [Example 1.12, (7′S)-7′-(3,5-difluorophenyl)-1-(6-fluoropyridin-2-yl)dihydro-1′H,3′H,5′H-spiro[piperidine-4,2′-pyrazolo[1,2-a]pyrazol]-1′-one] |
| 7.80 | O=C1N2[C@H](c3cc(F)cc(F)c3)CCN2CC12CCN(c1ncnc3ccsc13)CC2 [Example 1.13, (S)-7′-(3,5-difluorophenyl)-1-(thieno[3,2-d]pyrimidin-4-yl)dihydro-1′H,3′H,5′H-spiro[piperidine-4,2′-pyrazolo[1,2-a]pyrazol]-1′-one] |
| 7.77 | CSc1cc(N2CCC3(CC2)CN2CC[C@@H](c4cc(F)cc(F)c4)N2C3=O)ncn1 [Example 1.14, (S)-7′-(3,5-difluorophenyl)-1-(6-(methylthio)pyrimidin-4-yl)dihydro-1′H,3′H,5′H-spiro[piperidine-4,2′-pyrazolo[1,2-a]pyrazol]-1′-one] |
| 7.17 | Cc1cc(N2CCC3(CC2)CN2CC[C@@H](c4cc(F)cc(F)c4)N2C3=O)nc(C#N)n1 [Example 1.16, (S)-4-(7′-(3,5-difluorophenyl)-1′-oxodihydro-1′H,3′H,5′H-spiro[piperidine-4,2′-pyrazolo[1,2-a]pyrazol]-1-yl)-6-methylpyrimidine-2-carbonitrile] |
| 7.70 | O=C1N2[C@H](c3cc(F)cc(F)c3)CCN2CC12CCN(c1cc(-n3cccn3)ncn1)CC2 [Example 1.17, (S)-1-(6-(1H-pyrazol-1-yl)pyrimidin-4-yl)-7′-(3,5-difluorophenyl)dihydro-1′H,3′H,5′H-spiro[piperidine-4,2′-pyrazolo[1,2-a]pyrazol]-1′-one] |
| 7.57 | O=C1N2[C@H](c3cc(F)cc(F)c3)CCN2CC12CCN(c1cc(-n3ccnc3)ncn1)CC2 [Example 1.18, (S)-1-(6-(1H-imidazol-1-yl)pyrimidin-4-yl)-7′-(3,5-difluorophenyl)dihydro-1′H,3′H,5′H-spiro[piperidine-4,2′-pyrazolo[1,2-a]pyrazol]-1′-one] |
| 7.43 | Cc1cn(-c2cc(N3CCC4(CC3)CN3CC[C@@H](c5cc(F)cc(F)c5)N3C4=O)ncn2)cn1 [Example 1.19, (S)-7′-(3,5-difluorophenyl)-1-(6-(4-methyl-1H-imidazol-1-yl)pyrimidin-4-yl)dihydro-1′H,3′H,5′H-spiro [piperidine-4,2′-pyrazolo[1,2-a]pyrazol]-1′-one] |
| 6.80 | CCc1nccc(N2CCC3(CC2)CN2CC[C@@H](c4cc(F)cc(F)c4)N2C3=O)n1 [Example 1.20, (S)-7′-(3,5-difluorophenyl)-1-(2-ethylpyrimidin-4-yl)dihydro-1′H,3′H,5′H-spiro[piperidine-4,2′-pyrazolo[1,2-a]pyrazol]-1′-one] |
| 7.82 | Cn1nccc1-c1cc(N2CCC3(CC2)CN2CC[C@@H](c4cc(F)cc(F)c4)N2C3=O)ncn1 [Example 1.21, (S)-7′-(3,5-difluorophenyl)-1-(6-(1-methyl-1H-pyrazol-5-yl)pyrimidin-4-yl)dihydro-1′H,3′H,5′H-spiro[piperidine-4,2′-pyrazolo[1,2-a]pyrazol]-l′-one] |
| 7.05 | CSc1cnc(N2CCC3(CC2)CN2CC[C@@H](c4cc(F)cc(F)c4)N2C3=O)nc1 [Example 1.22, (S)-7′-(3,5-difluorophenyl)-1-(5-(methylthio)pyrimidin-2-yl)dihydro-1′H,3′H,5′H-spiro [piperidine-4,2′-pyrazolo[1,2-a]pyrazol]-1′-one] |
| 7.17 | COc1nc(N2CCC3(CC2)CN2CC[C@@H](c4cc(F)cc(F)c4)N2C3=O)ncc1C [Example 1.23, (S)-7′-(3,5-difluorophenyl)-1-(4-methoxy-5-methylpyrimidin-2-yl)dihydro-1′H,3′H,5′H-spiro[piperidine-4,2′-pyrazolo[1,2-a]pyrazol]-1′-one] |
| 6.87 | NC(=O)c1ccnc(N2CCC3(CC2)CN2CC[C@@H](c4cc(F)cc(F)c4)N2C3=O)n1 [Example 1.24, (S)-2-(7′-(3,5-difluorophenyl)-1′-oxodihydro-1′H,3′H,5′H-spiro[piperidine-4,2′-pyrazolo[1,2-a]pyrazol]-1-yl)pyrimidine-4-carboxamide] |
| 7.42 | O=C1N2[C@H](c3cc(F)cc(F)c3)CCN2CC12CCN(c1ncc(OC(F)F)cn1)CC2 [Example 1.25, (S)-1-(5-(difluoromethoxy)pyrimidin-2-yl)-7′-(3,5-difluorophenyl)dihydro-1′H,3′H,5′H-spiro[piperidine-4,2′-pyrazolo[1,2-a]pyrazol]-1′-one] |
| 7.82 | Cc1nc(N2CCC3(CC2)CN2CC[C@@H](c4cc(F)cc(F)c4)N2C3=O)ncc1OC(F)F [Example 1.26, (S)-1-(5-(difluoromethoxy)-4-methylpyrimidin-2-yl)-7′-(3,5-difluorophenyl)dihydro-1′H,3′H,5′H-spiro [piperidine-4,2′-pyrazolo[1,2-a]pyrazol]-1′-one] |
| 6.20 | Cc1ccnc(N2CCC3(CC2)CN2CC[C@@H](c4cc(F)cc(F)c4)N2C3=O)n1 [Example 1.27, (S)-7′-(3,5-difluorophenyl)-1-(4-methylpyrimidin-2-yl)dihydro-1′H,3′H,5′H-spiro[piperidine-4,2′-pyrazolo[1,2-a]pyrazol]-1′-one] |
| 6.39 | CCc1cnc(N2CCC3(CC2)CN2CC[C@@H](c4cc(F)cc(F)c4)N2C3=O)nc1 [Example 1.28, (S)-7′-(3,5-difluorophenyl)-1-(5-ethylpyrimidin-2-yl)dihydro-1′H,3′H,5′H-spiro[piperidine-4,2′-pyrazolo[1,2-a]pyrazol]-1′-one] |
| 7.08 | O=C1N2[C@H](c3cc(F)cc(F)c3)CCN2CC12CCN(c1ncc(F)cn1)CC2 [Example 1.29, (S)-7′-(3,5-difluorophenyl)-1-(5-fluoropyrimidin-2-yl)dihydro-1′H,3′H,5′H-spiro[piperidine-4,2′-pyrazolo[1,2-a]pyrazol]-1′-one] |

— patent US20240425524A1, “SPIROTRICYCLE RIPK1 INHIBITORS AND METHODS OF USES THEREOF” (Merck Sharp & Dohme LLC, priority 2021, published 2024)
